According to ChEMBL document CHEMBL1201862, “PubChem BioAssay data set” (2004):
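Compound exposure: 48 hours, 5 concentrations, 96-well plates. GI50: concentration for 50% inhibition of growth.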 Activity calls are given as the source filed them. No stated cut-off is given here; in the data, active = GI50 up to about 1.1 µM and inactive = higher.

Assays:
Assay in all cases: NCI-60 cell line screen, 48 h
K562 = system: K562
MDA-MB-231 = system: MDA-MB-231
NCI-H522 = system: NCI-H522
SR = system: SR
A549 = system: A549
CCRF-CEM = system: CCRF-CEM
NCI-H460 = system: NCI-H460
A498 = system: A498
MDA-MB-435 = system: MDA-MB-435
RPMI-8226 = system: RPMI-8226
OVCAR-3 = system: OVCAR-3
786-0 = system: 786-0
UACC-62 = system: UACC-62
MDA-N = system: MDA-N
HOP-62 = system: HOP-62
SF-539 = system: SF-539
SK-OV-3 = system: SK-OV-3
NCI/ADR-RES = system: NCI/ADR-RES
RXF 393 = system: RXF 393
HCC 2998 = system: HCC 2998

| SMILES | GI50 (K562) | GI50 (MDA-MB-231) | GI50 (NCI-H522) | GI50 (SR) | GI50 (A549) | GI50 (CCRF-CEM) | GI50 (NCI-H460) | GI50 (A498) | GI50 (MDA-MB-435) | GI50 (RPMI-8226) | GI50 (OVCAR-3) | GI50 (786-0) | GI50 (UACC-62) | GI50 (MDA-N) | GI50 (HOP-62) | GI50 (SF-539) | GI50 (SK-OV-3) | GI50 (NCI/ADR-RES) | GI50 (RXF 393) | GI50 (HCC 2998) |
| --- | --- | --- | --- | --- | --- | --- | --- | --- | --- | --- | --- | --- | --- | --- | --- | --- | --- | --- | --- | --- |
| CCn1c2ccccc2c2nnc(NCCCO)nc21 | > 100 µM (inactive) | > 100 µM (inactive) | > 100 µM (inactive) | 92.5 µM (inactive) | > 100 µM (inactive) | > 100 µM (inactive) | > 100 µM (inactive) | > 100 µM (inactive) | > 100 µM (inactive) | > 100 µM (inactive) | > 100 µM (inactive) | > 100 µM (inactive) | > 100 µM (inactive) | > 100 µM (inactive) | > 100 µM (inactive) | > 100 µM (inactive) | > 100 µM (inactive) | > 100 µM (inactive) | 57.9 µM (inactive) |  |
| CSCCC(NC(=O)C(Cc1c[nH]c2ccccc12)NC(=O)CCNC(=O)OC(C)(C)C)C(=O)NC(CC(=O)O)C(=O)NC(Cc1ccccc1)C(N)=O (configuration not stated) | > 50 µM (inactive) | > 50 µM (inactive) | > 50 µM (inactive) |  | > 50 µM (inactive) | > 50 µM (inactive) |  | > 50 µM (inactive) | > 50 µM (inactive) | > 50 µM (inactive) | > 50 µM (inactive) | > 50 µM (inactive) | > 50 µM (inactive) | > 50 µM (inactive) | > 50 µM (inactive) | > 50 µM (inactive) | > 50 µM (inactive) | > 50 µM (inactive) | > 50 µM (inactive) | > 50 µM (inactive) |
| CC(=O)OCCOCn1c2c(c(=S)[nH]c1=O)CCC2 | > 100 µM (inactive) | > 100 µM (inactive) | > 100 µM (inactive) | > 100 µM (inactive) | > 100 µM (inactive) | > 100 µM (inactive) |  |  | > 100 µM (inactive) | > 100 µM (inactive) | > 100 µM (inactive) | 93.8 µM (inactive) |  | > 100 µM (inactive) | > 100 µM (inactive) | > 100 µM (inactive) |  |  | > 100 µM (inactive) | > 100 µM (inactive) |
| COc1cc(C2=N/C(=C/c3cccs3)C(=O)O2)cc(OC)c1OC | > 100 µM (inactive) | > 100 µM (inactive) | > 100 µM (inactive) | > 100 µM (inactive) | > 100 µM (inactive) | > 100 µM (inactive) | > 100 µM (inactive) | > 100 µM (inactive) | > 100 µM (inactive) | > 100 µM (inactive) | > 100 µM (inactive) | > 100 µM (inactive) | > 100 µM (inactive) | > 100 µM (inactive) | > 100 µM (inactive) | > 100 µM (inactive) | > 100 µM (inactive) |  | > 100 µM (inactive) | > 100 µM (inactive) |
| COC(=O)CCC1(C)C2CCC1(C)/C(=N/O)C2 (configuration not stated) | > 100 µM (inactive) | > 100 µM (inactive) | > 100 µM (inactive) |  | > 100 µM (inactive) | > 100 µM (inactive) |  |  | > 100 µM (inactive) | > 100 µM (inactive) | > 100 µM (inactive) | > 100 µM (inactive) | > 100 µM (inactive) | > 100 µM (inactive) | > 100 µM (inactive) |  | > 100 µM (inactive) | > 100 µM (inactive) | > 100 µM (inactive) | > 100 µM (inactive) |
| C=CCN1C(=O)C[C@H](Cc2ccccc2)NC(=O)C[C@H](Cc2ccccc2)N(CC=C)C(=O)C[C@H](Cc2ccccc2)NC(=O)C[C@@H]1Cc1ccccc1 | 3.45 µM (inactive) | 8.79 µM (inactive) |  | 5.16 µM (inactive) | 4.83 µM (inactive) | 4.76 µM (inactive) | 5.42 µM (inactive) | 7.01 µM (inactive) | 5.93 µM (inactive) | 2.76 µM (inactive) | 87.7 µM (inactive) | 47.8 µM (inactive) | 6.34 µM (inactive) | 8.91 µM (inactive) | 51.8 µM (inactive) | 46.1 µM (inactive) | 34 µM (inactive) | 4.37 µM (inactive) | 7.14 µM (inactive) |  |
| COC(=O)C1SC(N(C)c2ccccc2)=NC12c1ccccc1Nc1ccccc12 (configuration not stated) | 15.1 µM (inactive) |  | 13.4 µM (inactive) | 15.3 µM (inactive) | 20.3 µM (inactive) | 6.71 µM (inactive) | 10.8 µM (inactive) | 20.7 µM (inactive) | 17.6 µM (inactive) | 3.08 µM (inactive) | 11 µM (inactive) | 26.1 µM (inactive) | 13.6 µM (inactive) | 23.1 µM (inactive) | 33.8 µM (inactive) | 18.4 µM (inactive) | 39.8 µM (inactive) | 13.5 µM (inactive) | 31.3 µM (inactive) | 20.5 µM (inactive) |
| CC(C)=CCC/C(C)=C/CC/C(C)=C/CC/C(C)=C/C=C/C=C(\C)CC/C=C(\C)CC/C=C(\C)CCC=C(C)C | 17.2 µM (inactive) | > 70.5 µM (inactive) | 14.8 µM (inactive) |  | 60 µM (inactive) | 24.6 µM (inactive) | 34.8 µM (inactive) | > 100 µM (inactive) | > 76.6 µM (inactive) | 38.4 µM (inactive) | > 100 µM (inactive) | 22.2 µM (inactive) | > 100 µM (inactive) | > 68.5 µM (inactive) | 72.6 µM (inactive) | > 100 µM (inactive) | > 100 µM (inactive) | 50.7 µM (inactive) | > 100 µM (inactive) | > 100 µM (inactive) |
| CCC#CCCCCCCCCC(F)C(=O)O (configuration not stated) | > 100 µM (inactive) | > 100 µM (inactive) | > 100 µM (inactive) |  | > 100 µM (inactive) | > 100 µM (inactive) |  | > 100 µM (inactive) | > 100 µM (inactive) | > 100 µM (inactive) | > 100 µM (inactive) | > 100 µM (inactive) |  | > 100 µM (inactive) | > 100 µM (inactive) | > 100 µM (inactive) | > 100 µM (inactive) | > 100 µM (inactive) | > 100 µM (inactive) | > 100 µM (inactive) |
| CSc1ccc(/C=C2\CNC/C(=C\c3ccc(SC)cc3)C2=O)cc1 | > 371 µM (inactive) | 86.9 µM (inactive) | 56.4 µM (inactive) |  | > 237 µM (inactive) |  | > 119 µM (inactive) |  | > 371 µM (inactive) | > 79.8 µM (inactive) | 36.8 µM (inactive) | 29.3 µM (inactive) | > 87.5 µM (inactive) | > 100 µM (inactive) | 84.5 µM (inactive) | 18.4 µM (inactive) | 96.8 µM (inactive) |  | 25.9 µM (inactive) |  |
| CSC(SC)=C(C#N)C(=O)Nc1cccc(Cl)c1 | 32.4 µM (inactive) | > 100 µM (inactive) | 17.5 µM (inactive) |  | 65.9 µM (inactive) | 33.1 µM (inactive) | 59.8 µM (inactive) | 61.1 µM (inactive) | > 100 µM (inactive) |  |  | 33.8 µM (inactive) | 59.6 µM (inactive) | 58.5 µM (inactive) | 67.9 µM (inactive) | 57.5 µM (inactive) | 65.8 µM (inactive) | 32.5 µM (inactive) | > 100 µM (inactive) | 75.5 µM (inactive) |
| [N-]=[N+]=NC(c1cn(C2CC(O)C(CO)O2)c(=O)[nH]c1=O)C(Cl)I (configuration not stated) |  | > 100 µM (inactive) |  |  | > 100 µM (inactive) |  | > 100 µM (inactive) | > 100 µM (inactive) | > 100 µM (inactive) | > 100 µM (inactive) | > 100 µM (inactive) | > 100 µM (inactive) | > 100 µM (inactive) | > 100 µM (inactive) | > 100 µM (inactive) | > 100 µM (inactive) | > 100 µM (inactive) | > 100 µM (inactive) | > 100 µM (inactive) | > 100 µM (inactive) |
| O=C1C=CC(=O)c2c1ccc1c3ccccc3n(-c3ccccc3)c21 | 0.986 µM (active) | 4.45 µM (inactive) | 1.64 µM (inactive) | 0.271 µM (active) | 20.5 µM (inactive) | 0.304 µM (active) | 17.9 µM (inactive) | 17.9 µM (inactive) | 14.1 µM (inactive) | 1.26 µM (inactive) | 8.83 µM (inactive) | 4.86 µM (inactive) | 13 µM (inactive) | 5.64 µM (inactive) | 11 µM (inactive) | 15.7 µM (inactive) | 16.8 µM (inactive) |  | 1.71 µM (inactive) | 24.9 µM (inactive) |
| NC(=O)CNC(=O)[C@@H]1CC(OCCC(=O)O)CN1C(=O)C1CCCN1C(=O)OCc1ccccc1 (some centres not stated) | > 100 µM (inactive) | > 100 µM (inactive) | > 100 µM (inactive) | > 100 µM (inactive) | > 100 µM (inactive) | > 100 µM (inactive) | > 100 µM (inactive) | > 100 µM (inactive) | > 100 µM (inactive) | > 100 µM (inactive) | > 100 µM (inactive) | > 100 µM (inactive) | > 100 µM (inactive) | > 100 µM (inactive) | > 100 µM (inactive) |  | > 100 µM (inactive) | > 100 µM (inactive) | > 100 µM (inactive) |  |
| COc1cc2c(c(OC)c1O)-c1ccc(OC)c(=O)cc1[C@@H](NC(=O)C(F)(F)F)CC2 |  | 0.0413 µM (active) | 0.0235 µM (active) |  | 0.472 µM (active) | 0.0519 µM (active) | 0.207 µM (active) | 0.327 µM (active) | 0.0206 µM (active) | 0.0252 µM (active) | 0.0307 µM (active) | 0.327 µM (active) | 0.0387 µM (active) | 0.0262 µM (active) | 0.192 µM (active) | 0.0243 µM (active) | 0.191 µM (active) | 3.72 µM (inactive) |  | 0.307 µM (active) |
